Measurements published in patent US7160889B2, “Quinazoline compounds” (AstraZeneca AB, priority 2000, dated 2007).

Target: T1, KDR receptor (Homo sapiens, UniProt P35968)
T1 construct: made in house; host or cells: insect cells (e.g. Spodoptera frugiperda Sf21, baculovirus)
Experiment: In vitro receptor tyrosine kinase inhibition test (a), KDR receptor
Assay type: biochemical
Conditions: using the KDR receptor
Source text: (a) In vitro Receptor Tyrosine Kinase Inhibition Test
This assay determines the ability of a test compound to inhibit tyrosine kinase activity. DNA encoding VEGF, FGF or EGF receptor cytoplasmic domains may be obtained by total gene synthesis (Edwards M, International Biotechnology Lab 5(3), 19–25, 1987) or by cloning. These may then be expressed in a suitable expression system to obtain polypeptide with tyrosine kinase activity. […] In the case of the VEGF receptor Flt (Genbank accession number X51602), a 7 kb DNA fragment encoding most of the cytoplasmic domain, commencing with methionine 783 and including the termination codon, described by Shibuya et al (Oncogene, 1990, 5: 519–524), was isolated from cDNA and cloned into a baculovirus transplacement vector (for example pAcYM1 (see The Baculovirus Expression System: A Laboratory Guide, L. A. King and R. D. Possee, Chapman and Hall, 1992) or pAc360 or pBlueBacHis (available from Invitrogen Corporation)). This recombinant construct was co-transfected into insect cells (for example Spodoptera frugiperda 21(Sf21)) with viral DNA (eg Pharmingen BaculoGold) to prepare recombinant baculovirus. […]

T1 sequence (P35968 786-1356 limits assumed): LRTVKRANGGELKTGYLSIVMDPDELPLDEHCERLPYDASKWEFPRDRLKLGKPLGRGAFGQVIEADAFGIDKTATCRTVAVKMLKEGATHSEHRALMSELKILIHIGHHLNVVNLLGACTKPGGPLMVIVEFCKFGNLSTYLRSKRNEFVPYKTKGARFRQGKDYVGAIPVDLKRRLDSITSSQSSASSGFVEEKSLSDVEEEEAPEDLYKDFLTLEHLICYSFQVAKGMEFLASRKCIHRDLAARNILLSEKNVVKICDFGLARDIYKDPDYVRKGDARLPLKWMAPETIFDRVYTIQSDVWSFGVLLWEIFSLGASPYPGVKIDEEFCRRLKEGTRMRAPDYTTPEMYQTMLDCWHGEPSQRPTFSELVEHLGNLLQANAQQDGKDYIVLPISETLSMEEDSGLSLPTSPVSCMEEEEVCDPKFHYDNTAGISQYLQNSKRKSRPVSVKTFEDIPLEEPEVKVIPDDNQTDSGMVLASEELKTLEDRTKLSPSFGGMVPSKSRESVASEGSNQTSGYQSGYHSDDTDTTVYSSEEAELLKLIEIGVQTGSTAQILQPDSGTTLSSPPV

- IC50: 15 to 50 nM
SMILES: COc1cc2c(Nc3ccc(Br)cc3F)ncnc2cc1OCC(O)CN1CCN(C)CC1 (stereo not shown) [Example 1]
